Read-outs that look alike come from different tables or passages of the source.
Key:
[1] = test system: lymphoblastoid cell lines of ASD phenotype 1 patients; experiment: Energy production (NADH) in Biolog Phenotype Mammalian MicroArrays, phenotype 1 cells; format: cell-based, human; conditions: cells exposed to the factor; Figure 1 (AUC) and Table 1
From the text: The phenotype 1 cohort (Phi) selected far in vitro experiments was composed by 14 males and 1 female (ratio 14:1), with an age range of 2-17 years (average 7.7).
From all subjects, blood samples were collected and lymphoblastoid cell lines generated. Briefly, tubes containing anticoagulant citrate dextrose (ACD) were used to collect blood samples via venipuncture, in order to ensure that the blood cells remained metabolically active. The tubes were kept at room temperature and processed within 24 hours.
Cell lines were obtained by immortalization of lymphocytes from blood samples using Epstein-Barr virus.
Energy production of cells was measured using commercially available Phenotype Mammalian MicroArrays (PM-Ms, Biolog, Hayward, Calif., USA).
The compound in each well was designed to be used by the cells, either as the sole energy source or as the metabolic effector influencing the utilization of an energy source (α-D-glucose) added in the cell suspension. […] Before plating, cell viability and number were assessed utilizing a BioRad cell counter and a trypan blue dye. The concentration of live cells required for plating was 4×10^5 cells/mL, corresponding to 20,000 cells per well in a volume of 50 μL. […] Cells were incubated for 48 h at 37° C. in 5% CO2, using the modified Biolog IF-M1 medium.
The Biolog IF-M1 medium was modified for plates PM-M1 to M4 by adding the following to 100 mL of Biolog IF-M1: 1.1 mL of 100× penicillin/streptomycin solution, 0.18 mL of 200 mM glutamine (final concentration 0.3 mM), and 5.3 mL of Fetal Bovine Serum (FBS, final concentration 5%). For plates PM-M5 to M8, 5.5 mM α-D-glucose will be added in place of FBS.
During the 48-hour incubation, the only energy source the cells had was the chemical in the well. After this first incubation, Biolog Redox Dye Mix MB was added (10 μL/well) and the plates were incubated under the same conditions for an additional 24 hours. As the cells metabolized the energy source, tetrazolium dye in the media was reduced, producing a purple color according to the amount of NADH generated.
For the last 24 hours of the experiment, the plates were incubated in the Omnilog system, which collects optical density readings every 15 minutes, generating 96 data-points for each well. The system also elaborated the kinetic curve for the metabolic reaction in each well and extrapolated parameters such as slope, highest point, endpoint, area under the curve (AUC), and lag.
At the end of the 24-hour incubation, the plates were analyzed utilizing a microplate reader with readings at 590 and 750 nm. The first value (A590) indicated the highest absorbance peak of the redox dye and the second value (A750) gave a measure of the background noise. The relative absorbance (A590-750) was calculated per well.

ASD phenotype 2 patients = conditions: for Clinical significance (CGI-I): after 3 days of sulforaphane administration; for ADI-R-RI S score / ADI-R-C S score / ADI-R-SI S score: day 3 of challenge test, given as broccoli sprout extract as in example 3; for ADI-R-SI S score: B score 16
Description: The effects of sulforaphane containing Broccoli sprout extract was observed and quantified in 7 individuals suffering from ASD and previously classified as either phenotype 1 or phenotype 2 patients.
We describe a procedure consisting of an evaluation of patients with ASD prior and after administration of broccoli sprout extract. The extract was prepared from selected broccoli seeds known to have high yield of sulforaphane which were surface-disinfected and grown (sprouted) for 3 days in a commercial sprouting facility under controlled light and moisture conditions. A boiling water extract was prepared, filtered, cooled, and treated with the enzyme myrosinase (from daikon sprouts) to convert precursor glucosinolates to isothiocyanates. Behavioral evaluation of patients was performed prior, during and after administration of sulforaphane-containing broccoli sprout extract. Baseline evaluation of patients was performed using standard clinical endpoints (ADI-R subscales ADI-SI, ADI-C and ADI-RI).
Challenge regimen consisted of the administration of a Broccoli Sprout Extract dose corresponding to a total daily dosage of 4 μmol/kg of sulforaphane, administered in 3 doses over the course of the day.
The assessment of baseline scores and post challenge test scores was conducted by two experienced clinicians with extensive experience in conducting ASD clinical assessments, both of which separately rated the patients. In case of diverging scores in test subscales at baseline or after administration of the challenge test, the lowest severity score was retained. Assessment of clinical endpoints was performed at day 3 of administration of challenge test. Behavioral Outcome Measures: (primary efficacy endpoints): ABC, SRS; CGI-S, CGI-I and ADI-R (ADI-SI, ADI-C, ADI-RI).

humans = conditions: cited from earlier work
[2] = Example 4 Patient 1 (phenotype 2)
[3] = Example 4 Patient 2 (phenotype 2)

For “hGH(Somatotropin): growth factor that selectively targets the PI3K-Akt-mTOR pathway”, the “production of NADH in ASD phenotype 1 cells compared to TDs and non-phenotype 1 cells” value [1] was “significantly reduced production of NADH”.
In the case of `C[S@@+]([O-])CCCCN=C=S` [sulforaphane, 1-isothiocyanato-4R-(methylsulfinyl)butane], the “Clinical significance (CGI-I)” value (ASD phenotype 2 patients; [2]) is reported as “Very much improved”, the “ADI-R-RI S score” value (ASD phenotype 2 patients; Example 4 Patient 1 (phenotype 2), B score 3) is reported as 3 and the “ADI-R-C S score” value (ASD phenotype 2 patients; Example 4 Patient 1 (phenotype 2), B score 12) is reported as 10. The “ADI-R-SI S score” value (ASD phenotype 2 patients; [2]) was 12, the “Clinical significance (CGI-I)” value (ASD phenotype 2 patients; [3]) was “Very much improved” and the “ADI-R-RI S score” value (ASD phenotype 2 patients; Example 4 Patient 2 (phenotype 2), B score 5) was 4. The “ADI-R-C S score” value (ASD phenotype 2 patients; Example 4 Patient 2 (phenotype 2), B score 11) was 9, the “ADI-R-SI S score” value (ASD phenotype 2 patients; [3]) was 14 and the “tolerability of administration to humans” value (humans; humans) was “well tolerated”. For the same molecule, the toxicity (humans; in vivo) was “low toxicity”.
In the case of IL-1beta: Th1 cytokine, the “production of NADH in ASD phenotype 1 cells compared to TDs and non-phenotype 1 cells” value [1] is reported as “significantly lower levels of NADH”.
In the case of “PDGF-AB: platelet-derived growth factor AB”, the “production of NADH in ASD phenotype 1 cells compared to TDs and non-phenotype 1 cells” value [1] is reported as “no significant differences”.
For “FGF-1(aFGF): growth factor that selectively targets the PI3K-Akt-mTOR pathway”, the “production of NADH in ASD phenotype 1 cells compared to TDs and non-phenotype 1 cells” value [1] was “significantly reduced production of NADH”.
For IGF-I: insulin-like growth factor 1, the “production of NADH in ASD phenotype 1 cells compared to TDs and non-phenotype 1 cells” value [1] was “no significant differences”.
With IL-6: Th1 cytokine the “production of NADH in ASD phenotype 1 cells compared to TDs and non-phenotype 1 cells” value [1] was “significantly lower levels of NADH”.

— patent US11364311B2, “Method of identifying ASD phenotype 1 patients” (Stalicla S.A., priority 2017, dated 2022)
